{"source": "patent US20240189244A1", "about": "(priority 2021, published 2024)", "key": {"[1]": {"system": "renal proximal tubule cells (RPTCs)", "type": "cell-based, New Zealand white rabbits", "conditions": "for effect of inhibitor pretreatment on DEDC(NP) uptake by RPTCs: then 0.1 mg/mL DEDC(NP)s 2 h", "procedure": "To assess uptake of DEDC(NP)s, RPTCs were grown in 35-mm tissue culture dishes as described above. DEDC(NP) dispersions were prepared by diluting nanoparticles into media and vortexed immediately prior to experiments. Cells were preincubated for 30 min with varying concentrations of either media or the drugs chlorpromazine hydrochloride (Sigma-Aldrich), nocodazole (Sigma-Aldrich), or simvastatin (Sigma-Aldrich). After pre-incubation, DEDC(NP)s were added at a final concentration of 0.1 mg/mL and incubated for 2 h at 37° C. Cells were washed in triplicate with media to ensure removal of nanoparticles adhered to the outer cell membrane. Cells were then fixed in 10% neutral buffered formalin and nuclei stained with 4′,6-diamidino-2-phenylindole (DAPI). Cells were imaged using the EVOS M5000 Imaging System (ThermoFisher, Waltham, MA) and fluorescence intensity was analyzed by ImageJ (NIH) (n=5 biological replicates)."}, "[2]": {"test": "physchem", "conditions": "for solubility at 24 h: 25 °C, thermodynamic from solid", "procedure": "For variable pH samples, solution pH was adjusted with either hydrochloric acid or sodium hydroxide solutions (1 M Sigma-Aldrich, St. Louis, MO). Vials were rotated gently for 24 hours at 25° C. as previously described (Aodah A, Pavlik A, Karlage K, Myrdal P B. Preformulation Studies on Piperlongumine. PLOS One. 2016; 11(3):e0151707). Test solutions were filtered using 0.45 μm PVDF or PTFE membrane filters (MilliporeSigma, Burlington, MA) for aqueous and organic solvents respectively."}, "[3]": {"system": "Wistar rats", "conditions": "cited from earlier work"}, "[4]": {"system": "BTBR WT and ob/ob mice", "test": "Diabetic mice: cardiovascular fibrosis, heart weight and survival", "procedure": "The efficacy of nanoparticle therapy was determined using BTBR wild type and obese diabetic mice (BTBR T^+ Itpr3^tf/J (WT) and BTBR.Cg-Lep^ob/WiscJ (ob/ob)) (The Jackson Laboratory, Bar Harbor, ME). […] Mice in the vehicle saline groups, Veh(Sal), received daily intraperitoneal injections of normal saline. Immediately following study initiation, 8 mice from both WT and ob/ob Veh(Sal) were euthanized and kidneys extracted for histological analysis. Remaining mice (n=8 per group) were treated for 8 weeks. Following the final week of treatment, mice were sacrificed and kidneys were perfused with normal saline with heparin (10 U/mL). Serum, kidneys and heart were collected for protein and histological analysis.\nCardiovascular fibrosis was measured by quantification of the fraction of trichrome-positive area in both interstitial and perivascular sections of the right ventricular wall. At least 15 sections were quantified per animal. All quantification was completed by an analyst blinded to treatment group."}, "[5]": {"system": "NDUFB8, SDHB, UQCRC2, ATP5A in renal cortex", "test": "Nanoparticle dose selection: renal cortical ETC proteins after 1 week of dosing", "conditions": "BTBR WT mice", "protocol": "The FFD(NP) dosage and frequency was determined using BTBR wild type mice (BTBR T^+ Itpr3^tf/J) (The Jackson Laboratory, Bar Harbor, ME). […] The Veh(Sal) group was given intraperitoneal injections of normal saline daily. The Veh(NP) group was given 60 mg/kg nanoparticles injected via lateral tail vein 2× per week. […] After eight days, mice were weighed, euthanized and kidneys were extracted and snap-frozen in liquid nitrogen.\nProtein was extracted from renal cortical tissue using radioimmunoprecipitation assay (RIPA) buffer (50 mM Tris-HCl, 150 mM NaCl, 0.1% SDS, 0.5% sodium deoxycholate and 1% Triton X-100, pH 7.4) with protease inhibitor cocktail (1:100), 1 mM sodium fluoride, and 1 mM sodium orthovanadate (Sigma Aldrich). Equal protein quantities (10 μg) were loaded onto 4-15% SDS-PAGE gels, resolved by gel electrophoresis, and then transferred onto nitrocellulose membranes. Membranes were blocked in 5% milk in tris-buffered saline/tween 20, incubated at a temperature of 4° C. for 18-24 h with primary and secondary antibodies (Abcam). Bound antibodies were visualized using enhanced chemiluminescence (Thermo Scientific, Waltham, MA) and the GE ImageQuant LAS400 Biomolecular Imaging System (GE Healthcare, Marlborough, MA)."}, "[6]": {"system": "KIM-1, PGC-1α, ETC proteins, tight junction proteins in renal cortex", "test": "I/R AKI: renal cortex proteins by immunoblot and KIM-1 immunohistochemistry", "type": "in vivo, C57Bl/6 mice", "conditions": "144 hours, daily treatment", "procedure": "(§1) Mice were subjected to bilateral renal ischemia for 18-20 minutes or sham surgery as previously described (Funk J A, Schnellmann R G. Persistent disruption of mitochondrial homeostasis after acute kidney injury. Am J Physiol Renal Physiol 2012; 302: F853-864). Mice were allowed to recover without intervention for 24 hours and sorted into groups based on 24-hour serum creatinine levels prior to initiation of dosing. Mice were dosed either daily or at a reduced frequency at 24 hours and 96 hours post-injury (2-day dosing). […] Mice were given VS and FFD via intraperitoneal injection."}, "[7]": {"system": "PGC-1α, ND1, NDUFS1 in left ventricle", "test": "Immunoblot of mitochondrial biogenesis markers in left ventricle of naive mice", "conditions": "24 hours; formoterol 0.3 mg/kg or nanoparticles 0.04 mg/kg formoterol i.v.; vs control", "procedure": "(§2) Male C57BL/6 mice were obtained from Charles River (Oakwood, MI) and housed in a room at a constant temperature of 22+2° C. with 12:12 hour light-dark cycles. […] At 24 hours post exposure, mice were euthanized and kidney and heart were harvested. All experiments were approved by The University of Arizona in accordance with the guidelines set forth by the National Institutes of Health Guide for the Care and Use of Laboratory Animals."}, "[8]": {"system": "I/R injured mice", "test": "I/R AKI: cardiovascular function by tail cuff", "conditions": "1-2 hours following administration", "procedure": "as §1\nMouse blood pressure and heart rates were measured with a non-invasive tail cuff device (CODA8, Kent Scientific, CT) as previously described (Wang Y, Thatcher S E, Cassis L A. Measuring Blood Pressure Using a Noninvasive Tail Cuff Method in Mice. Methods Mol Biol 2017; 1614: 69-73). All measurements were performed on restrained, conscious animals located on a heating pad following the manufacturer's protocol. […] At least 10 valid measurements were taken per animal."}, "[9]": {"system": "renal proximal tubule cells (RPTCs)", "conditions": "up to a concentration of 1000 nM, previous studies; cited from earlier work"}, "[10]": {"system": "C57BL/6 mice", "test": "Tail cuff heart rate and blood pressure, naive mice", "conditions": "1-2 hours after 0.3 mg/kg formoterol", "procedure": "as §2\nThe blood pressure and heart rates were measured with a non-invasive tail cuff device (CODA8, Kent Scientific, CT) which uses a volume-pressure method as previously described (Wang Y, Thatcher S E, Cassis L A. Measuring Blood Pressure Using a Noninvasive Tail Cuff Method in Mice. Methods Mol Biol. 2017; 1614:69-73). All measurements were performed on restrained, conscious animals located on a heating pad following the manufacturers protocol. […] At least 10 valid measurements were taken per animal."}, "[11]": {"system": "renal proximal tubule cells (RPTCs)", "test": "Cell viability by resazurin reduction assay", "conditions": "formoterol 1-1000 nM, 24 hours", "protocol": "The RPTCs were cultured on 35-mm tissue culture dishes with 1:1 DMEM:F-12 (without glucose, phenol red, or sodium pyruvate) as media supplemented with 15 mM HEPES buffer, 2.5 mM L-glutamine, 1 μM pyridoxine HCL, 15 mM sodium bicarbonate, and 6 mM lactate. Daily, hydrocortisone (50 nM), selenium (5 ng/mL), human transferrin (5 μg/mL), bovine insulin (10 nM), and L-ascorbic acid-2-phosphate (50 μM) were added to fresh culture medium. Confluent cells were used for all experiments.\nCultured RPTCs were grown on 96-well plates at a cell density of 5×10^3 cells/well for 96 h. […] The treatments were each prepared by dissolving or suspending the powders in culture media. […] Viability was assessed (n=6 technical replicates per biological replicate) by resazurin reduction assay as described previously (41). Detection was assessed using Synergy H1 Multi-Mode Reader (BioTek Instruments, Inc., Winooski, VT) with 544 nm excitation and 590 nm emission wavelengths. The relative viability of the cells was calculated as follows: […]\nDetection was measured using Synergy H1 Multi-Mode Reader (BioTek Instruments, Inc., Winooski, VT) with 544 nm excitation and 590 nm emission wavelengths. Five biological replicates were used and viability of the cells was calculated as follows:"}, "[12]": {"conditions": "ventricular wall, 8 weeks of treatment"}}, "note": "Structures can show the parent of a compound that is named as a salt.", "data": [{"smiles": "COC(=O)Nc1nc2ccc(C(=O)c3cccs3)cc2[nH]1", "note": "[nocodazole]", "values": [{"measurement": "effect of inhibitor pretreatment on DEDC(NP) uptake by RPTCs", "setting": "[1]; 30 min preincubation", "result": "no observable decline in uptake"}]}, {"smiles": "CCC(C)(C)C(=O)O[C@H]1C[C@@H](C)C=C2C=C[C@H](C)[C@H](CC[C@@H]3C[C@@H](O)CC(=O)O3)[C@H]21", "note": "[simvastatin]", "values": [{"measurement": "inhibitor concentration at which decrease in nanoparticle uptake starts", "setting": "[1]; 30 min preincubation", "result": 1, "unit": "µM"}, {"measurement": "inhibitor concentration giving complete reduction in intracellular fluorescence intensity", "setting": "[1]; 30 min preincubation", "result": 100, "unit": "µM"}]}, {"smiles": "COc1ccc(CC(C)NCC(O)c2ccc(O)c(NC=O)c2)cc1", "note": "(centres unmarked) [formoterol, Formoterol fumarate dihydrate]", "values": [{"measurement": "solubility at 24 h", "setting": "[2]; organic solvent or mixture, Formoterol Solubility, ACN", "result": "5 ± 1", "unit": "µg/mL"}, {"measurement": "solubility at 24 h", "setting": "[2]; organic solvent or mixture, Formoterol Solubility, Acetone", "result": "63 ± 4", "unit": "µg/mL"}, {"measurement": "solubility at 24 h", "setting": "[2]; organic solvent or mixture, Formoterol Solubility, Chloroform", "result": "2 ± 1", "unit": "µg/mL"}, {"measurement": "solubility at 24 h", "setting": "[2]; organic solvent or mixture, Formoterol Solubility, DCM", "result": "1 ± 0.4", "unit": "µg/mL"}, {"measurement": "solubility at 24 h", "setting": "[2]; water, water solubility", "result": "1160 ± 20", "unit": "µg/mL"}, {"measurement": "Formoterol Solubility", "setting": "[2]; Acetone, fumarate dihydrate", "result": "51 ± 4", "unit": "µg/mL"}, {"measurement": "solubility in non-ionic surfactant solutions", "setting": "[2]; PVA and Pluronic F127, 0.1% to 5% in aqueous solution", "result": "remains unchanged"}, {"measurement": "solubility in water:alcohol mixtures", "setting": "[2]; ethanol and methanol volume fraction", "result": "increased with increasing volume fraction"}, {"measurement": "solubility in water at various pH", "setting": "[2]; pH adjusted with HCl or NaOH", "result": "increasing solubility in highly basic or acidic conditions"}, {"measurement": "increase in heart rate from baseline", "setting": "[3]; immediately following systemic dosing", "result": "100-150 bpm"}, {"measurement": "mean arterial pressure (MAP)", "setting": "[3]; intravenous administration, similar doses", "result": "significant decrease in mean arterial pressure"}, {"measurement": "lowest dose at which heart rate effect was seen", "setting": "[3]; rat, in vivo", "result": 3, "unit": "µg/kg"}, {"measurement": "persistence of heart rate increase", "setting": "[3]; rat, in vivo", "result": "up to 4 hours"}, {"measurement": "focal myocardial fibrosis / collagen accumulation", "setting": "[4]; 8 weeks of treatment", "result": "significant focal"}, {"measurement": "probability of survival to 12 weeks of age", "setting": "[4]; BTBR WT mice", "result": 38, "unit": "%"}, {"measurement": "heart weight normalized to respective Veh(Sal) controls", "setting": "[4]; BTBR WT or BTBR ob/ob", "result": 1.3, "unit": "fold"}, {"measurement": "probability of surviving to 12 weeks of age", "setting": "[4]; BTBR ob/ob mice", "result": 13, "unit": "%"}, {"measurement": "diffuse interstitial trichrome positive area elevation", "setting": "[4]; [12]", "result": 1.6, "unit": "fold"}, {"measurement": "perivascular trichrome positive area elevation", "setting": "[4]; [12]", "result": 3.7, "unit": "fold"}, {"measurement": "weight gain", "setting": "[5]", "result": "no differences in weight gain amongst groups"}, {"measurement": "claudin-5 expression", "setting": "[6]", "result": "50 % of sham"}, {"measurement": "protein expression of mitochondrial biogenesis markers in left ventricle", "setting": "[7]", "result": "Elevated protein expression was significant"}, {"measurement": "decrease in mean arterial pressure (MAP)", "setting": "[8]", "result": 18, "unit": "%"}, {"measurement": "heart rate increase from VS", "setting": "[8]", "result": 1.5, "unit": "fold"}, {"measurement": "toxicity to RPTCs", "setting": "[9]", "result": "non-toxic"}, {"measurement": "decrease in diastolic blood pressure", "setting": "[10]", "result": 19, "unit": "mmHg"}, {"measurement": "decrease in mean arterial pressure (MAP)", "setting": "[10]", "result": 16, "unit": "mmHg"}, {"measurement": "heart rate elevation above the vehicle group", "setting": "[10]", "result": 198, "unit": "bpm"}, {"measurement": "heart rate increase vs vehicle", "setting": "[10]", "result": 65, "unit": "%"}, {"measurement": "viability of proximal tubule cells", "setting": "[11]", "result": "not significantly decreased"}]}, {"smiles": "CN(C)CCCN1c2ccccc2Sc2ccc(Cl)cc21", "note": "[chlorpromazine, chlorpromazine hydrochloride]", "values": [{"measurement": "effect of inhibitor pretreatment on DEDC(NP) uptake by RPTCs", "setting": "[1]; 30 min preincubation", "result": "no observable decline in uptake"}]}, {"smiles": "CCN1C(=CC=CC=Cc2sc3ccccc3[n+]2CC)Sc2ccccc21.[I-]", "note": "[DEDC, 3,3′-diethylthiadicarbocyanine iodide]", "values": [{"measurement": "intracellular fluorescence in RPTCs (uptake)", "setting": "[1]; 0.1 mg/mL DEDC(NP)s or equivalent free dye, 2 h", "result": "minimal"}]}]}
